#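 Briefly, cells in 96-well plates were exposed to five compound concentrations for 48 h, and endpoints were estimated by linear interpolation. GI50 marks 50% less growth. TGI: concentration producing complete growth inhibition.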
# Tests used:
# Test in all cases: NCI-60 cell line screen, 48 h
# M14 melanoma = system: M14 melanoma
# MCF7 breast = system: MCF7 breast
# SK-OV-3 ovarian = system: SK-OV-3 ovarian
# UO-31 renal = system: UO-31 renal
# A498 renal = system: A498 renal
# HCT-116 colon = system: HCT-116 colon
# HCT-15 colon = system: HCT-15 colon
# HS 578T breast = system: HS 578T breast
# BT-549 breast = system: BT-549 breast
# HCC-2998 colon = system: HCC-2998 colon
SMILES,GI50 (M14 melanoma),TGI (M14 melanoma),GI50 (MCF7 breast),TGI (MCF7 breast),GI50 (SK-OV-3 ovarian),TGI (SK-OV-3 ovarian),GI50 (UO-31 renal),TGI (UO-31 renal),GI50 (A498 renal),TGI (A498 renal),GI50 (HCT-116 colon),TGI (HCT-116 colon),GI50 (HCT-15 colon),TGI (HCT-15 colon),GI50 (HS 578T breast),TGI (HS 578T breast),GI50 (BT-549 breast),TGI (BT-549 breast),GI50 (HCC-2998 colon),TGI (HCC-2998 colon)
Oc1ccc(N=Nc2ccc(N=Nc3ccccc3)cc2)cc1,3010 nM,10.1 µM,1500 nM,6.86 µM,3.29 µM,7.87 µM,610 nM,3.73 µM,9.23 µM,21.7 µM,1990 nM,10.1 µM,0.855 µM,12.9 µM,12.4 µM,51 µM,0.899 µM,9.06 µM,2.52 µM,11.1 µM
C[C@@H]1C[C@@]2(O[C@@H]2C)C(=O)O[C@@H]2CCN3CC=C(COC(=O)[C@]1(C)O)[C@H]23,–,> 100 µM,–,> 100 µM,–,> 100 µM,–,> 100 µM,–,> 100 µM,–,> 100 µM,–,> 100 µM,–,> 100 µM,–,> 100 µM,–,> 100 µM
Cc1nn(-c2nc3ccccc3[nH]2)c2c1C(c1ccc3c(c1)OCO3)CC(=O)N2 (stereo not given),2310 nM,5.98 µM,2980 nM,> 30.1 µM,2.63 µM,5.77 µM,2730 nM,8.14 µM,1.61 µM,4.42 µM,2240 nM,4.73 µM,3.05 µM,> 100 µM,2.93 µM,13.5 µM,3.26 µM,14.2 µM,3.7 µM,> 24.3 µM
NCCCCN(Cc1nc2ccccc2[nH]1)[C@H]1CCCc2cccnc21,13900 nM,30.2 µM,17800 nM,> 72.7 µM,18.6 µM,> 86.5 µM,12000 nM,> 72.7 µM,7.81 µM,> 51.8 µM,6810 nM,51.3 µM,24.3 µM,> 100 µM,19 µM,> 91.4 µM,22.8 µM,> 100 µM,16.9 µM,38.2 µM
C/C=C/C=C\C1OC(O)([C@H](CC)C(=O)NC/C=C/C=C(\C)[C@H](OC)C(C)C2OC(\C=C/C=C/C=C(\C)C(=O)c3c(O)ccn(C)c3=O)[C@H](O)[C@@H]2O)C(O)C(O)C1(C)C (stereo not given in full),–,> 100 µM,–,> 100 µM,–,> 100 µM,–,> 100 µM,–,> 100 µM,–,> 100 µM,–,> 100 µM,–,> 100 µM,–,> 100 µM,–,> 100 µM
CS(=O)(=O)Nc1cc(-c2ccc3ncnc(Nc4ccc5c(cnn5Cc5ccccc5F)c4)c3c2)cnc1Cl,2660 nM,15.6 µM,1480 nM,30.3 µM,0.845 µM,3.96 µM,3230 nM,> 100 µM,1.05 µM,3.71 µM,2080 nM,> 33.7 µM,3.28 µM,55 µM,0.249 µM,1.84 µM,1.57 µM,8.73 µM,2.2 µM,8.46 µM
S=C(Nc1ccccc1)N(Cc1ccccc1)c1ccccc1,–,> 100 µM,–,> 100 µM,–,> 100 µM,–,> 100 µM,–,67.2 µM,–,> 100 µM,–,> 100 µM,–,> 100 µM,–,4.97 µM,–,> 100 µM
O=Cc1ccc(O)c2ncccc12,2990 nM,26.1 µM,2450 nM,8.11 µM,10.8 µM,39.3 µM,4960 nM,36.9 µM,25.4 µM,> 63.9 µM,2540 nM,11.7 µM,1.29 µM,18.3 µM,7.05 µM,> 53.7 µM,3.59 µM,> 71.8 µM,11.8 µM,41.8 µM
CN(C)c1ccc(O)c2c1C[C@H]1C[C@H]3[C@H](N(C)C)C(=O)C(C(N)=O)=C(O)[C@@]3(O)C(=O)C1=C2O,5090 nM,65.9 µM,10100 nM,> 100 µM,3.92 µM,> 100 µM,3650 nM,79.8 µM,1.49 µM,10.5 µM,3860 nM,35 µM,4.02 µM,94 µM,3.36 µM,34.2 µM,4.14 µM,20.1 µM,4.19 µM,17.8 µM
COc1cc(/C=C/C(=O)c2c(C)n([O-])c3ccc(Cl)cc3[n+]2=O)cc(OC)c1OC,> 100000 nM,> 100 µM,57000 nM,> 100 µM,34.6 µM,> 100 µM,1550 nM,5.47 µM,23.5 µM,> 100 µM,76000 nM,> 100 µM,> 100 µM,> 100 µM,12.4 µM,64.3 µM,18.7 µM,42.5 µM,> 100 µM,> 100 µM
O=C(CCCCCCC(=O)Nc1ccc2c(c1)/C(=C/c1ccc[nH]1)C(=O)N2)NO,427 nM,10 µM,437 nM,> 69.6 µM,0.341 µM,3.85 µM,963 nM,> 100 µM,0.358 µM,2.06 µM,230 nM,2.87 µM,3.93 µM,> 49.3 µM,1.01 µM,> 100 µM,1.87 µM,22 µM,1.64 µM,10.9 µM
COc1ccc2nc(C)cc(Nc3ccccc3O)c2c1,17600 nM,45.8 µM,20500 nM,51.2 µM,> 100 µM,> 100 µM,21200 nM,> 100 µM,8.07 µM,45.2 µM,15000 nM,82 µM,32.4 µM,> 100 µM,31.9 µM,> 100 µM,37.1 µM,> 100 µM,17.6 µM,34.3 µM
COC(=O)[C@@]1(O)C[C@H]2O[C@]1(C)n1c3ccccc3c3c4c(c5c6ccccc6n2c5c31)C(=O)NC4,35.5 nM,1.15 µM,194 nM,4.34 µM,0.0336 µM,0.926 µM,25.6 nM,1.37 µM,0.0712 µM,0.585 µM,102 nM,2.24 µM,0.0706 µM,2.5 µM,0.248 µM,2.06 µM,0.295 µM,1.91 µM,0.609 µM,2.8 µM
